Results as given in patent publication US8481527B2, “Benzamide derivatives as bradykinin antagonists” (Richter Gedeon Nyrt., priority 2006, dated 2013).

How the values were obtained:
[1] = biological target: T1, recombinant human B1 receptors (Homo sapiens, UniProt P46663); assay: Functional assay: antagonist potency by cytosolic calcium measurement in CHO-B1 cells (agonist LysDABK); format: cell-based; settings: CHO-B1 cells, LysDABK at EC80, fluo-4 [Ca2+]i; read-out: B1 func.
T1 construct: host or cells: CHO (CHO-B1)
T1 sequence (P46663 1-353): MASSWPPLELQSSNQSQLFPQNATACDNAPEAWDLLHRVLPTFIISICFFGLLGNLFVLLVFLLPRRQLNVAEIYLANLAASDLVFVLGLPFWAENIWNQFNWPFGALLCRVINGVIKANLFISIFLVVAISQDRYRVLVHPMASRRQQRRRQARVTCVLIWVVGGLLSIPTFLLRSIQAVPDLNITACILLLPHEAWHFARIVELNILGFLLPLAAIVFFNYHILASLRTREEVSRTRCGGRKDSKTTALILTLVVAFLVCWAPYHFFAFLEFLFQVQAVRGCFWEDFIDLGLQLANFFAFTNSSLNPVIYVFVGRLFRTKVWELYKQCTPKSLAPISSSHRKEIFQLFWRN
Protocol: Assessment of Antagonist Potency at B1 and B2 Receptors In Vitro by Measurement of Cytosolic Calcium Ion Concentration with a Plate Reader Fluorimeter in Cells Expressing Recombinant Human B1 or B2 Receptors
Chinese hamster ovary (CHO) cells stably expressing recombinant human B1 (CHO-B1, Euroscreen) or B2 (CHO-B2, Perkin-Elmer) receptors were cultured in Dulbecco's Modified Eagle's Medium (DMEM) containing 10% Fetal Calf Serum (FCS), 100 U/ml penicillin, 0.1 mg/ml streptomycin, 0.25 μg/ml amphotericin B, 1% Minimum Essential Medium Eagle (MEM), non essential amino acid solution, 600 μg/ml G418, 1% pyruvate (for the B2 cell line). Cells were kept at 37° C. in a humidified incubator in an atmosphere of 5% CO2/95% air and were passaged 1:4 three times a week. Cells were plated at 1.5-2.5×10^4 cell/well on standard 96-well microplates, measurements of cytosolic calcium ion concentration ([Ca^2+]i) were carried out 1-2 days after cell plating.
Measurements of [Ca^2+]i were carried out on CHO-B1 and CHO-B2 cells stably expressing human B1 and B2 receptors, respectively. Cells were grown in standard 96-well microplates and before the measurement were loaded with a fluorescent Ca^2+-sensitive dye, fluo-4/AM (2 μM): after removing the culture medium the dye was added to the cells (dissolved in assay buffer: 145 mM NaCl, 5 mM KCl, 2 mM MgCl2, 2 mM CaCl2, 10 mM HEPES, 20 mM D-glucose, 2 mM probenecid, 100 μl/well) and cells were incubated at 37° C. in a humidified incubator in an atmosphere of 5% CO2/95% air for 40-120 min. To stop dye loading cells were washed twice with assay buffer. After washing, various concentrations of the test compounds (diluted in extracellular medium from a DMSO stock solution, final DMSO concentration was <0.1%) or buffer were added to each well depending on the experimental setup. After incubation at 37° C. for 20-25 min. baseline and agonist-evoked changes of [Ca^2+]i were measured column by column with a plate reader fluorimeter (Fluoroskan Ascent, Labsystems). Excitation and detection of emission was carried out from the bottom of the plate. Filters used for Fluo-4: excitation filter—485 nm, emission filter—538 nm. The whole measurement process was performed at 37° C. and was controlled by custom software. Inhibitory potency of the test compounds was assessed by measuring the reduction in the agonist-evoked [Ca^2+]i-elevation in the presence of different concentrations of the compounds. The agonists were LysDABK for CHO-B1, and bradykinin for CHO-B2 cells. Agonists were applied at an EC80 concentration, the EC80-values were derived from daily determined dose-response curves. Fluorescence data were expressed as ΔF/F (fluorescence change normalized to baseline). All treatments on a single plate were measured in multiple wells. Data from all wells with the same treatment were averaged and the average values were used for analysis. Inhibitory potency of a compound at a single concentration point was expressed as percent inhibition of the control agonist response. Sigmoidal concentration-inhibition curves were fitted to the data (derived from at least three independent experiments) and IC50-values were determined as the concentration that produces half of the maximal inhibition caused by the compound.

[2] = biological target: T2, human recombinant bradykinin B1 receptor (Homo sapiens, UniProt P46663); assay: Human recombinant bradykinin B1 receptor binding; settings: CHO cell membranes, [3H]-[Des-Arg10] Kallidin radioligand; read-out: B1 binding
T2 construct: purchased Euroscreen ES-091; host or cells: CHO cells
T2 sequence (P46663 1-353): T1 sequence (P46663 1-353)
Protocol: Receptor Binding Assays 1. Human Recombinant Bradykinin B1 Receptor Binding
Binding assays were carried out on human recombinant bradykinin) receptors (expressed in CHO cells) according to the Euroscreen Technical Data Sheet (Cat.No.:ES-091). 20 μg protein/tube was incubated with [3,4-prolyl-3,4-^3H(N)]-[Des-Arg^10] Kallidin as radioligand. Non specific binding was determined in the presence of 10 μM Lys-des-Arg^9-Bradykinin. The final incubation volume was 250 μl. Samples were incubated for 15 min. at 25° C. then were rapidly vacuum filtered through GF/B filters presoaked for at least 1 h in 0.5% PEI. Radioactivity was determined by liquid scintillation spectroscopy.

Structure (SMILES)	IC50 [1]	Ki [2]
O=C(NCC(=O)N1CCN(CCN2CCCC2)CC1)c1ccc(S(=O)(=O)Nc2ccccc2Oc2ccc(Cl)cc2Cl)cc1 [Example 1.1, 4-[2-(2,4-Dichloro-phenoxy)-phenylsulfamoyl]-N-{2-oxo-2-[4-(2-pyrrolidin-1-yl-ethyl)-piperazin-1-yl]-ethyl}-benzamide]	< 20 nM	< 20 nM
CN(C)CCN1CCN(C(=O)CNC(=O)c2ccc(S(=O)(=O)Nc3ccccc3Oc3ccc(Cl)cc3Cl)cc2)CC1 [Example 1.2, 4-[2-(2,4-Dichloro-phenoxy)-phenylsulfamoyl]-N-{2-[4-(2-dimethylamino-ethyl)-piperazin-1-yl]-2-oxo-ethyl}-benzamide]	< 20 nM	< 20 nM
CCN(CC)CCN1CCN(C(=O)CNC(=O)c2ccc(S(=O)(=O)Nc3ccccc3Oc3ccc(Cl)cc3Cl)cc2)CC1 [Example 1.3, 4-[2-(2,4-Dichloro-phenoxy)-phenylsulfamoyl]-N-{2-[4-(2-diethylamino-ethyl)-piperazin-1-yl]-2-oxo-ethyl}-benzamide]	< 20 nM	< 20 nM
O=C(NCC(=O)N1CCN(CCCN2CCCC2)CC1)c1ccc(S(=O)(=O)Nc2ccccc2Oc2ccc(Cl)cc2Cl)cc1 [Example 1.4, 4-[2-(2,4-Dichloro-phenoxy)-phenylsulfamoyl]-N-{2-oxo-2-[4-(3-pyrrolidin-1-yl-propyl)-piperazin-1-yl]-ethyl}-benzamide]	< 20 nM	< 20 nM
CN1CCCC(CN2CCN(C(=O)CNC(=O)c3ccc(S(=O)(=O)Nc4ccccc4Oc4ccc(Cl)cc4Cl)cc3)CC2)C1 (centres unmarked) [Example 1.5, 4-[2-(2,4-Dichloro-phenoxy)-phenylsulfamoyl]-N-{2-[4-(1-methyl-piperidin-3-ylmethyl)-piperazin-1-yl]-2-oxo-ethyl}-benzamide]	< 20 nM	< 20 nM
O=C(NCC(=O)N1CCC(CCN2CCCC2)CC1)c1ccc(S(=O)(=O)Nc2ccccc2Oc2ccc(Cl)cc2Cl)cc1 [Example 1.6, 4-[2-(2,4-Dichloro-phenoxy)-phenylsulfamoyl]-N-{2-oxo-2-[4-(2-pyrrolidin-1-yl-ethyl)-piperidin-1-yl]-ethyl}-benzamide]	< 20 nM	< 20 nM
O=C(NCC(=O)N1CCN(c2ncccn2)CC1)c1ccc(S(=O)(=O)Nc2ccccc2Oc2ccc(Cl)cc2Cl)cc1 [Example 1.7, 4-[2-(2,4-Dichloro-phenoxy)-phenylsulfamoyl]-N-[2-oxo-2-(4-pyrimidin-2-yl-piperazin-1-yl)-ethyl]-benzamide]	< 20 nM	< 20 nM
O=C(NCC(=O)N1CCCN(CCCN2CCOCC2)CC1)c1ccc(S(=O)(=O)Nc2ccccc2Oc2ccc(Cl)cc2Cl)cc1 [Example 1.8, 4-[2-(2,4-Dichloro-phenoxy)-phenylsulfamoyl]-N-{2-[4-(3-morpholin-4-yl-propyl)-[1,4]diazepan-1-yl]-2-oxo-ethyl}-benzamide]	< 20 nM	< 20 nM
O=C(NCC(=O)N1CCN(CCCN2CCCCC2)CC1)c1ccc(S(=O)(=O)Nc2ccccc2Oc2ccc(Cl)cc2Cl)cc1 [Example 1.9, 4-[2-(2,4-Dichloro-phenoxy)-phenylsulfamoyl]-N-{2-oxo-2-[4-(3-piperidin-1-yl-propyl)-piperazin-1-yl]-ethyl}-benzamide]	< 20 nM	< 20 nM

Second part, the compound after the results:

IC50 [1]	Ki [2]	Structure (SMILES)
< 20 nM	< 20 nM	CN(C)CCCN1CCN(C(=O)CNC(=O)c2ccc(S(=O)(=O)Nc3ccccc3Oc3ccc(Cl)cc3Cl)cc2)CC1 [Example 1.10, 4-[2-(2,4-Dichloro-phenoxy)-phenylsulfamoyl]-N-{2-[4-(3-dimethylamino-propyl)-piperazin-1-yl]-2-oxo-ethyl}-benzamide]
< 20 nM	< 20 nM	O=C(NCC(=O)N1CCCN(CCCN2CCCC2)CC1)c1ccc(S(=O)(=O)Nc2ccccc2Oc2ccc(Cl)cc2Cl)cc1 [Example 1.11, 4-[2-(2,4-Dichloro-phenoxy)-phenylsulfamoyl]-N-{2-oxo-2-[4-(3-pyrrolidin-1-yl-propyl)-[1,4]diazepan-1-yl]-ethyl}-benzamide]
< 20 nM	< 20 nM	O=C(NCC(=O)N1CCN(CCCN2CCOCC2)CC1)c1ccc(S(=O)(=O)Nc2ccccc2Oc2ccc(Cl)cc2Cl)cc1 [Example 1.12, 4-[2-(2,4-Dichloro-phenoxy)-phenylsulfamoyl]-N-{2-[4-(3-morpholin-4-yl-propyl)-piperazin-1-yl]-2-oxo-ethyl}-benzamide]
< 20 nM	< 20 nM	O=C(NCC(=O)N1CCN(CCN2CCCCC2)CC1)c1ccc(S(=O)(=O)Nc2ccccc2Oc2ccc(Cl)cc2Cl)cc1 [Example 1.13, 4-[2-(2,4-Dichloro-phenoxy)-phenylsulfamoyl]-N-{2-oxo-2-[4-(2-piperidin-1-yl-ethyl)-piperazin-1-yl]-ethyl}-benzamide]
< 20 nM	< 20 nM	O=C(NCC(=O)N1CCC(N2CCCC2)CC1)c1ccc(S(=O)(=O)Nc2ccccc2Oc2ccc(Cl)cc2Cl)cc1 [Example 1.21, 4-[2-(2,4-Dichloro-phenoxy)-phenylsulfamoyl]-N-[2-oxo-2-(4-pyrrolidin-1-yl-piperidin-1-yl)-ethyl]-benzamide]
< 20 nM	< 20 nM	O=C(NCC(=O)N1CCC(O)CC1)c1ccc(S(=O)(=O)Nc2ccccc2Oc2ccc(Cl)cc2Cl)cc1 [Example 1.22, 4-[2-(2,4-Dichloro-phenoxy)-phenylsulfamoyl]-N-[2-(4-hydroxy-piperidin-1-yl)-2-oxo-ethyl]-benzamide]
< 20 nM	< 20 nM	O=C(NCC(=O)N1CCN(CCN2CCCC2)CC1)c1ccc(S(=O)(=O)Nc2ccccc2Oc2ccccc2)cc1 [Example 2.2, N-{2-Oxo-2-[4-(2-pyrrolidin-1-yl-ethyl)-piperazin-1-yl]-ethyl}-4-(2-phenoxy-phenylsulfamoyl)-benzamide]
< 20 nM	< 20 nM	CN(C)CCN1CCN(C(=O)CNC(=O)c2ccc(S(=O)(=O)Nc3ccccc3Oc3ccccc3)cc2)CC1 [Example 2.3, N-{2-[4-(2-Dimethylamino-ethyl)-piperazin-1-yl]-2-oxo-ethyl}-4-(2-phenoxy-phenylsulfamoyl)-benzamide]
< 20 nM	< 20 nM	CCN(CC)CCN1CCN(C(=O)CNC(=O)c2ccc(S(=O)(=O)Nc3ccccc3Oc3ccccc3)cc2)CC1 [Example 2.4, N-{2-[4-(2-Diethylamino-ethyl)-piperazin-1-yl]-2-oxo-ethyl}-4-(2-phenoxy-phenylsulfamoyl)-benzamide]
< 20 nM	< 20 nM	O=C(NCC(=O)N1CCN(CCCN2CCCC2)CC1)c1ccc(S(=O)(=O)Nc2ccccc2Oc2ccccc2)cc1 [Example 2.5, N-{2-Oxo-2-[4-(3-pyrrolidin-1-yl-propyl)-piperazin-1-yl]-ethyl}-4-(2-phenoxy-phenylsulfamoyl)-benzamide]
